Laboratory results: patent US5747336A, “Cloned human genes for muscarinic acetylcholine receptors and cells lines expressing same” (The United States of America as represented by the …, priority 1994, dated 1998)

Tests used:
human m5 receptor (Hm5) = molecular target: T1, human m5 receptor (Hm5) (Homo sapiens, UniProt P08912); assay: 3H-NMS binding assay (direct and inhibition), membranes of transfected CHO cells, Hm5
T1 construct: expressed in transfected cells
T1 sequence (P08912 1-532): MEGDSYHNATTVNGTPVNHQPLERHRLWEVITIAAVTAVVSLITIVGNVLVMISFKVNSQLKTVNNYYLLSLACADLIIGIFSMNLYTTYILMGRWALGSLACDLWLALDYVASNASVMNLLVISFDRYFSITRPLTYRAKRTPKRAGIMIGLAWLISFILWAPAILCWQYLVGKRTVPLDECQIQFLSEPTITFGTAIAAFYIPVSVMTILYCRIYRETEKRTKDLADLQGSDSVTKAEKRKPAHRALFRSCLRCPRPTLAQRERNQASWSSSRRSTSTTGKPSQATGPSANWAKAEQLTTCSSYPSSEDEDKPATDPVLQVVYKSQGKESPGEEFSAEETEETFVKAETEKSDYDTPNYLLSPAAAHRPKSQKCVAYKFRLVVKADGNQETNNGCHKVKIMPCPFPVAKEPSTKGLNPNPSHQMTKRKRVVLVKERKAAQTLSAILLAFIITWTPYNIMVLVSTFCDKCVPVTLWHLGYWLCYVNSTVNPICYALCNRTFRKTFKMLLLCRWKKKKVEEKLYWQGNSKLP
Procedure: Cells were seeded into six well plates at a density of 10^5 cells/well in growth medium consisting of Minimum Eagle's, Medium supplemented with 10% fetal calf serum (Gibco) and 1000 U each of penicillin G and streptomycin and 4 mM glutamine (Whitaker M.A Bioproducts). Except for the overnight (10-16 hours) transfection (see below) cells were incubated in a humidified incubator at 37° C. and 5% CO2. […] Cells were transferred to a humidified incubator at 35° C. and 3% CO2 and incubated overnight (10-16 hours). […] At the end of selection, transfected cells were harvested and plated at limiting dilution into 96-well plates.
Transfected cells were grown to confluence, washed and scraped into cold binding buffer and homogenized for 30 seconds in a Tekmar Tissumizer (setting 50). Membranes were pelleted at 14,000 g, rehomogenized and the membrane protein determined using a Biorad Protein assay dye reagent. Membrane concentration was adjusted to 1mg protein/ml and stored frozen at -80° C. prior to use.
All membranes, drugs and radioligands were made up in binding buffer which consisted of 25 mM sodium phosphate (pH 7.4) containing 5 mM magnesium chloride. Assays were conducted in 1 ml total volume. Final membrane protein concentrations were 30 ug/ml (m1), 70 ug/ml (m2), 4 μg/ml (m3), 7 μg/ml (m4), and 3 μg/ml (m5). […] Displaceable binding was assessed in the presence of 1 uM atropine sulphate. Binding was terminated by filtration through a Brandel cell harvester onto Whatman GF/C filters.
Data from two to four experiments were independently fit by nonlinear regression to a single mass-action binding site. […] Note Rm1 is the rat m1 receptor, not the human m1 receptor.

human m2 receptor (Hm2) [1] = molecular target: T2, human m2 receptor (Hm2) (Homo sapiens, UniProt P08172)
T2 sequence (P08172 1-466): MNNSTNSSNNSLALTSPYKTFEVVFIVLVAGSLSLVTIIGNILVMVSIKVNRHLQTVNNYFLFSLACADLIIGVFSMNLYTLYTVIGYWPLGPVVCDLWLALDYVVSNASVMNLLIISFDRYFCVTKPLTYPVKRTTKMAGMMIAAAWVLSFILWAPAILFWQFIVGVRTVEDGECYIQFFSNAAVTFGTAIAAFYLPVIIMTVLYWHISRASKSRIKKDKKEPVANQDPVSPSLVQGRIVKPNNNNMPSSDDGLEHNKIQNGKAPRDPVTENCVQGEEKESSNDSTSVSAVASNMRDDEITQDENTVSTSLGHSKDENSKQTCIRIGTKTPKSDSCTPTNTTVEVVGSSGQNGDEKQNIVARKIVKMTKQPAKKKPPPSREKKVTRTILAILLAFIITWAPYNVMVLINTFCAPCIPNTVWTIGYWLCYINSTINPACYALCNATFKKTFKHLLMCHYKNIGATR
From the text: (§1) Data from two to four experiments were independently fit by nonlinear regression to a single mass-action binding site. The average values of the parameters derived from the fits and their standard errors are presented. […] Note Rm1 is the rat m1 receptor, not the human m1 receptor.

rat m1 receptor (Rm1) [2] = molecular target: T3, rat m1 receptor (Rm1) (Rattus norvegicus, UniProt P08482); settings: inhibition of 3H-NMS binding
T3 sequence (P08482 1-460): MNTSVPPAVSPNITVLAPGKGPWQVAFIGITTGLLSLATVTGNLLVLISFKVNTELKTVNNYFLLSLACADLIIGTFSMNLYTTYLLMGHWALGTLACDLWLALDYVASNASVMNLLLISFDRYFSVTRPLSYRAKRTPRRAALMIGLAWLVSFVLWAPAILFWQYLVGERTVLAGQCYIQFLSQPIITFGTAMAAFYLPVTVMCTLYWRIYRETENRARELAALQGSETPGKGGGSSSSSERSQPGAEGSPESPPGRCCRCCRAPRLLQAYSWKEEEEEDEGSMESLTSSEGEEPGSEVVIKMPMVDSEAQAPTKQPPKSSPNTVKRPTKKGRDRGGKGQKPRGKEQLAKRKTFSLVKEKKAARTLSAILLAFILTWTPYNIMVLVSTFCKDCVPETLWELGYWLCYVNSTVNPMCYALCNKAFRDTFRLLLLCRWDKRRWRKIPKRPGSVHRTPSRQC
Procedure: (§2) All membranes, drugs and radioligands were made up in binding buffer which consisted of 25 mM sodium phosphate (pH 7.4) containing 5 mM magnesium chloride. Assays were conducted in 1 ml total volume. Final membrane protein concentrations were 30 ug/ml (m1), 70 ug/ml (m2), 4 μg/ml (m3), 7 μg/ml (m4), and 3 μg/ml (m5). […] Displaceable binding was assessed in the presence of 1 uM atropine sulphate. […]

human m3 receptor (Hm3) [3] = molecular target: T4, human m3 receptor (Hm3) (Homo sapiens, UniProt P20309)
Procedure: as §2

human m4 receptor (Hm4) [4] = molecular target: T5, human m4 receptor (Hm4) (Homo sapiens, UniProt P08173); settings: inhibition of 3H-NMS binding
T5 sequence (P08173 1-479): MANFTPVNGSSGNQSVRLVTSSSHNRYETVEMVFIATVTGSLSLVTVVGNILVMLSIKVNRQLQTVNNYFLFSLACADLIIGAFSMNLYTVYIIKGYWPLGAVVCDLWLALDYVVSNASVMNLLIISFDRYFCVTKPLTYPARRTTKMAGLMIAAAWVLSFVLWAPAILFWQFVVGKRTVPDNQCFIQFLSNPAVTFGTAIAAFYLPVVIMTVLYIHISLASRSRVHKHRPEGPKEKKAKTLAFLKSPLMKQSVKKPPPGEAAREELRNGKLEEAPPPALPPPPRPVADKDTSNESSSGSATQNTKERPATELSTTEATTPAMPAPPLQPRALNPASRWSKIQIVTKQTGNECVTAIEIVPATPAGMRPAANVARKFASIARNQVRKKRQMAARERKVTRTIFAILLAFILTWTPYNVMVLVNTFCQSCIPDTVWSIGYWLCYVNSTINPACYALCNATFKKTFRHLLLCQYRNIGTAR

rat m1 receptor (Rm1) [5] = molecular target: T3, rat m1 receptor (Rm1); assay: biochemical
Procedure: as §2

human m2 receptor (Hm2) [6] = molecular target: T2, human m2 receptor (Hm2); assay: biochemical
From the text: as §1

human m3 receptor (Hm3) [7] = molecular target: T4, human m3 receptor (Hm3); assay: biochemical
Procedure: as §2

human m4 receptor (Hm4) [8] = molecular target: T5, human m4 receptor (Hm4); assay: biochemical

T4 sequence (P20309 whole entry): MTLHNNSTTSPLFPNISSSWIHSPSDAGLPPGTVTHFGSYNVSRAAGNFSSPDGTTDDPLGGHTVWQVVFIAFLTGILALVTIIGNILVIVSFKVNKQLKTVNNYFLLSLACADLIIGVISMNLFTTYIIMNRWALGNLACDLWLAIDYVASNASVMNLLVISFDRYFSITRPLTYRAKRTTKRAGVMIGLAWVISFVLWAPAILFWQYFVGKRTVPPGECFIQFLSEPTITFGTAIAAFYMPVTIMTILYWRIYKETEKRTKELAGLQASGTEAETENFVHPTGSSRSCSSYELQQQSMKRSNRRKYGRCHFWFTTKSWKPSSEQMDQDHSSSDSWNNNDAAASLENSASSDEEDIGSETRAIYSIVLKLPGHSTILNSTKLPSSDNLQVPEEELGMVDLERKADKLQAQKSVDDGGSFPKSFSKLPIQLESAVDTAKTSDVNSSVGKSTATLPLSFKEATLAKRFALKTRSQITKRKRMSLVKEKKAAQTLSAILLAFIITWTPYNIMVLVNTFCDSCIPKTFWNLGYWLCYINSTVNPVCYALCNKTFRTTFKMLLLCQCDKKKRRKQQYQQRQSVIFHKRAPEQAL

SMILES | Bmax (human m5 receptor (Hm5); Hm5 in CHO cell membranes, direct binding of 3H-NMS) | Bmax (human m2 receptor (Hm2) [1]; Hm2 in CHO cell membranes, direct binding of 3H-NMS) | IC50 (human m5 receptor (Hm5)) | Ki (human m5 receptor (Hm5); Hm5, inhibition of 3H-NMS binding) | Ki (rat m1 receptor (Rm1) [2]) | Ki (human m2 receptor (Hm2) [1]; Hm2, inhibition of 3H-NMS binding) | Ki (human m3 receptor (Hm3) [3]) | Ki (human m4 receptor (Hm4) [4]; Hm4) | average Hill number (H) (human m4 receptor (Hm4) [4]; m4, fit to single mass action binding site with variable Hill number) | IC50 (rat m1 receptor (Rm1) [5]) | IC50 (human m2 receptor (Hm2) [6]) | IC50 (human m3 receptor (Hm3) [7]) | IC50 (human m4 receptor (Hm4) [8])
C[N+]1(C)C2CC(OC(=O)C(CO)c3ccccc3)CC1C1OC12 (single isomer, unassigned) [^3 H-NMS, N-methylscopolamine] | 2236 ± 590 fmol/mg protein | 121 ± 63 fmol/mg protein | – | – | – | – | – | – | – | – | – | – | –
CCN(CC)CC1CCCCN1CC(=O)N1c2ccccc2C(=O)Nc2cccnc21 (stereo not shown) [AF-DX 116] | – | – | 6.8 ± 0.9 µM | 2.8 µM | 1.3 µM | 0.26 µM | 0.82 µM | 0.45 µM | 0.79±0.03 | 4.3 ± 1.2 µM | 0.36 ± 0.23 µM | 3.1 ± 0.4 µM | 1.8 ± 0.3 µM
